From the supplement of paper PMC11061612

Legend:
[1] = tested on: SNU-407 (Colorectal Carcinoma); test: combination Emax (second highest fraction inhibited in the dose matrix, 72 h); higher = more inhibition; extreme values may be limits of the assay
Method in brief: (§1)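 Bliss excess equals the observed combination effect minus the expected value EA + EB − EA·EB, where EA and EB are the effects of each agent alone. Combination Emax is the second-highest inhibition within the matrix. Inhibition was scaled from CellTiter-Glo 2.0 luminescence, with 0 set by vehicle wells and 1 by blank wells, after 72 hours of two-drug dosing of cells plated in 1536-well plates.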

[2] = tested on: OAW-28 (Ovarian Carcinoma); test: as above
Method in brief: as §1

CS(=O)(=O)CCNCc1ccc(-c2ccc3ncnc(Nc4ccc(OCc5cccc(F)c5)c(Cl)c4)c3c2)o1 [Lapatinib] + NC1(c2ccc(-c3nc4ccn5c(=O)[nH]nc5c4cc3-c3ccccc3)cc2)CCC1 [MK-2206] (first compound max 10 µM, 7x7, partner max 10 µM)
combination Emax [1]: 0.808
combination Emax [2]: 0.898
